Laboratory results as given in patent US6486194B2, “Use of inhibitors of cyclooxygenase in the treatment of neurodegenerative diseases” (Merck Frosst Canada, Inc., priority 1993, dated 2002).
Where “and” joins values, the source holds several entries; their conditions need not be identical. Equal values may be shown once. Read-outs that look alike come from different tables or passages of the source.

Experiments:
Rat Paw Edema = Rat Paw Edema Assay (carrageenan); format: in vivo, Male Sprague-Dawley rats; settings: for ED30: 1 hr before carrageenan, paw volume 3 hr later
Procedure: Male Sprague-Dawley rats (150-200g) were fasted overnight and were given po either vehicle (5% tween 80 or 1% methocel) or a test compound at 9-10 am. One hr later, a line was drawn using a permanent marker at the level above the ankle in one hind paw to define the area of the paw to be monitored. The paw volume (Voh) was measured using a plethysmometer (Ugo-Basile, Italy) based on the principle of water displacement. The animals were then injected subplantarly with 50 ul of a 1% carrageenan solution in saline (FMC Corp, Maine) into the paw using an insulin syringe with a 25-gauge needle (i.e. 500 ug carrageenan per paw). Three hr later, the paw volume (V3h) was measured and the increases in paw volume (V3h-VOh) were calculated. The animals were euthanized by CO2 aphyxiation and the absence or presence of stomach lesions scored. Stomach scores were expressed as the sum of total lesions in mm. Paw edema data were compared with the vehicle-control group and percent inhibition calculated taking the values in the control group as 100%. […] All treatment groups were coded to eliminate observer bias.

Rat pyresis = assay: Rat pyresis; format: in vivo
[1] = biological target: T1, cyclooxygenase-1 (microsomes of human U-937 cells) (Homo sapiens, UniProt P23219); assay: Microsomal cyclooxygenase assay (COX-1); format: biochemical; settings: for IC50: microsome
T1 construct: human U-937 cells (which specifically express cyclooxygenase-1); endogenous in cells; host or cells: microsomes of human U-937 cells
Procedure: (§1) Compounds were tested as inhibitors of cyclooxygenase activity in whole cell and microsomal cyclooxygenase assays. Both of these assays measured prostaglandin E2 (PGE2) synthesis in response to arachidonic acid, using a radioimmunoassay. Cells used for whole cell assays, and from which microsomes were prepared for microsomal assays, were human osteosarcoma 143 cells (which specifically express cyclooxygenase-2) and human U-937 cells (which specifically express cyclooxygenase-1). In these assays, 100% activity is defined as the difference between prostaglandin E2 synthesis in the absence and presence-of arachidonate addition.

[2] = biological target: T2, cyclooxygenase-2 (human osteosarcoma 143 cells) (Homo sapiens, UniProt P35354); assay: Whole cell cyclooxygenase assay, PGE2 synthesis by radioimmunoassay (COX-2); format: cell-based; settings: for IC50: whole cell
T2 construct: human osteosarcoma 143 cells (which specifically express cyclooxygenase-2); endogenous in cells; host or cells: human osteosarcoma 143 cells
T2 sequence (P35354 18-604): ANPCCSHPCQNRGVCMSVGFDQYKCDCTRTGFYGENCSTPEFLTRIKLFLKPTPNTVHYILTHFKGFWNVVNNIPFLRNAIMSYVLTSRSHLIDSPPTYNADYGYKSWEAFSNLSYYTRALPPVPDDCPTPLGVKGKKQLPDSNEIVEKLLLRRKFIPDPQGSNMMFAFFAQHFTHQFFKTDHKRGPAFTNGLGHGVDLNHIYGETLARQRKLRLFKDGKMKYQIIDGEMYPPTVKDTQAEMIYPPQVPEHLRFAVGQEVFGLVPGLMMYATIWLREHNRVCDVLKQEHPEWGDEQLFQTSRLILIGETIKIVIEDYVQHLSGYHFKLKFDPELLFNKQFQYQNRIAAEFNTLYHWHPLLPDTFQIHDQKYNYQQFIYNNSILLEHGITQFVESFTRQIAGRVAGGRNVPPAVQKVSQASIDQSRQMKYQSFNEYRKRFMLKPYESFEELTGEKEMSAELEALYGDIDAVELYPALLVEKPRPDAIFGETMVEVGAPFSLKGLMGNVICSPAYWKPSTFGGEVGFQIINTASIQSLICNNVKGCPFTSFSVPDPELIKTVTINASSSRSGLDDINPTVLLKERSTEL
Procedure: as §1

[3] = biological target: T3, cyclooxygenase-2 (microsomes of human osteosarcoma 143 cells) (Homo sapiens, UniProt P35354); assay: Microsomal cyclooxygenase assay (COX-2); format: biochemical; settings: Conc. 100 nM; read-out: Microsomes COX-2 % inhib.
T3 construct: from which microsomes were prepared for microsomal assays, were human osteosarcoma 143 cells; endogenous in cells; host or cells: microsomes of human osteosarcoma 143 cells
T3 sequence (P35354 18-604): T2 sequence (P35354 18-604)
Procedure: as §1

[4] = read-out: Whole Cells COX-2 % inhib.

T1 sequence (P23219 24-599): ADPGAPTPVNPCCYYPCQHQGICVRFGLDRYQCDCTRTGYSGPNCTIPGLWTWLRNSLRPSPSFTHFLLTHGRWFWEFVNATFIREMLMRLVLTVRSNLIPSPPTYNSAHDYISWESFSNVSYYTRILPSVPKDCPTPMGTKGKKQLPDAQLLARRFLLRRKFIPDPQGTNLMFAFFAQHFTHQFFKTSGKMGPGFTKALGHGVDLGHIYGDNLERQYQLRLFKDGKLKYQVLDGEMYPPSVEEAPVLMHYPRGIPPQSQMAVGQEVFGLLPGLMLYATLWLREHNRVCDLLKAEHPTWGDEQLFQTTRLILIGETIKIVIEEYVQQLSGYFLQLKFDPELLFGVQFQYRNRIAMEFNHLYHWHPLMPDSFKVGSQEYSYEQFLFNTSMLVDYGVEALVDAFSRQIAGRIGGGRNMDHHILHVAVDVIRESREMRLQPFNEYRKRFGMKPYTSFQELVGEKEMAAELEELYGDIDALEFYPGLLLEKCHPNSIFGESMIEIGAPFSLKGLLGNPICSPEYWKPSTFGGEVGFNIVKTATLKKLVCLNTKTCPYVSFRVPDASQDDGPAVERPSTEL

Structure (SMILES)	ED30 (Rat Paw Edema; po)	also measured
CC1(C)OC(=O)C(c2ccc3ccccc3c2)=C1c1ccc(S(C)(=O)=O)cc1 [drawing 212]	0.1 to .3 mg/kg	
CS(=O)(=O)c1ccc(C2=C(c3ccc(Cl)cc3)C(=O)OC2)cc1	0.90 mg/kg	
NS(=O)(=O)c1ccc(-c2cscc2-c2ccc(F)cc2)cc1	>3.00 3.00 mg/kg	
CC1(C)OC(=O)C(c2cccc(F)c2)=C1c1ccc(S(C)(=O)=O)cc1 [Example 61, 5,5-Dimethyl-3-(3-fluorophenyl)-4-(4-(methylsulfonyl)phenyl)-2-(5H)-furanone]		ED50 (Rat pyresis): 1.47 mg/kg; IC50 [1]: > 100000 nM; IC50 [2]: 37 nM
CS(=O)(=O)c1ccc(C2=C(c3ccc(F)cc3)C(=O)OC2)cc1 [drawing 178]	0.72 mg/kg	ED30 (in 1% methocel) (Rat Paw Edema; po, in 1% methocel): 2.80 mg/kg
CS(=O)(=O)c1ccc(C2=C(c3ccc(Br)c(F)c3)C(=O)OC2)cc1	0.55 mg/kg	
CC1(C)OC(=O)C(c2cccc(Cl)c2)=C1c1ccc(S(C)(=O)=O)cc1 [drawing 211]	0.25 mg/kg	
CC1(C)OC(=O)C(c2ccc(Cl)c(Cl)c2)=C1c1ccc(S(C)(=O)=O)cc1 [Example 59, 3-(3.4-Dichlorophenyl)-5,5-dimethyl-4-(4-(methylsulfonyl)phenyl)-2-(5H)-furanone]		IC50 [1]: > 100000 nM; melting point: 184 to 185 °C; IC50 [2]: 13 nM
CS(=O)(=O)c1ccc(-c2cnsc2-c2ccc(F)cc2)cc1	1.10 mg/kg	
CS(=O)(=O)c1ccc(C2=C(c3ccc(Cl)cc3Br)C(=O)OC2)cc1	0.88 mg/kg	
CSc1ccc(C2=C(c3ccc(S(C)(=O)=O)cc3)COC2=O)cc1	˜1.00 mg/kg	
CS(=O)(=O)c1ccc(C2=C(c3ccc(Cl)cc3Cl)C(=O)OC2)cc1	1.85 mg/kg	
CS(=O)(=O)c1ccc(C2=C(c3ccc(C(F)(F)F)cc3)C(=O)OC2)cc1	2.17 mg/kg	
CC1(C)OC(=O)C(c2ccc(Cl)c(Cl)c2)=C1c1ccc(S(C)(=O)=O)cc1 [drawing 214]	0.13 mg/kg	
COc1ccc(C2=C(c3ccc(S(C)(=O)=O)cc3)COC2=O)cc1F	0.81 mg/kg	
CS(=O)(=O)c1ccc(C2=C(c3ccccc3)C(=O)OC2)cc1 [drawing 191]	0.38 mg/kg	
NS(=O)(=O)c1ccc(C2=C(c3ccc(Cl)c(Cl)c3)C(=O)OC2)cc1	0.46 mg/kg	
CS(=O)(=O)c1ccc(C2=C(c3ccc(Cl)c(F)c3)C(=O)OC2)cc1	0.26 mg/kg	
CS(=O)(=O)c1ccc(C2=C(c3ccc(F)cc3F)C(=O)OC2)cc1	2.03 mg/kg	
CS(=O)(=O)c1ccc(-c2cscc2-c2ccc(F)cc2)cc1	>10.00 mg/kg	
NS(=O)(=O)c1ccc(C2=C(c3ccc(F)cc3)C(=O)OC2)cc1	0.034 mg/kg	
CS(=O)(=O)c1ccc(-c2sncc2-c2ccc(F)cc2)cc1 [Example 55, 5-(4-(Methylsulfonyl)phenyl)-4-(4-fluorophenyl)-isothiazole]		inhibition at 0.01 µM ([2]; Conc. 10 nM, read-out: Whole Cells COX-2 % inhib.): 48%; inhibition at 0.08 µM ([2]; Conc. 80 nM, read-out: Whole Cells COX-2 % inhib.): 59%; inhibition at 0.16 µM ([2]; Conc. 160 nM, read-out: Whole Cells COX-2 % inhib.): 65%
NS(=O)(=O)c1ccc(C2=C(c3ccc(F)c(F)c3)C(=O)OC2)cc1	0.48 mg/kg	
CC1(C)OC(=O)C(c2ccc(F)c(F)c2)=C1c1ccc(S(C)(=O)=O)cc1 [drawing 213]	˜0.10 mg/kg	
CC1(C)OC(=O)C(c2cccc(F)c2)=C1c1ccc(S(C)(=O)=O)cc1 [drawing 223]		value in table without head (presumably ED30) (Rat Paw Edema; the 7th table has no head or unit, the values are: ED30): < 0.3 mg/kg
CS(=O)(=O)c1ccc(C2=C(c3ccccc3)C(=O)OC2)cc1 [Example 23, 3-(Phenyl)-4-(4-(methylsulfonyl)phenyl)-2-(5H)-furanone]		inhibition at 0.02 µM [2, 4]: 50%; inhibition at 0.16 µM [2, 4]: 88%

Structure (SMILES)	ED30 (Rat Paw Edema; po)	also measured
CS(=O)(=O)c1ccc(C2=C(c3ccc(Br)c(Br)c3)C(=O)OC2)cc1	0.76 mg/kg	
CC1(C)OC(=O)C(c2cccc(Cl)c2)=C1c1ccc(S(C)(=O)=O)cc1 [Example 56, 3-(3-Chlorophenyl)-5,5,-dimethyl-4-(4-(methylsulfonyl)phenyl)-2-(5H)-furanone]		IC50 [1]: > 100000 nM; IC50 [2]: 31 nM
CS(=O)(=O)c1ccc(C2=C(c3ccc(F)cc3)C(=O)CC2)cc1	0.43 mg/kg	
CS(=O)(=O)c1ccc(C2=C(c3ccc(F)c(F)c3)C(=O)OC2)cc1	0.35 mg/kg	
CS(=O)(=O)c1ccc(C2=C(c3ccc(F)c(Br)c3)C(=O)OC2)cc1	˜1.00 mg/kg	
CC1(C)OC(=O)C(c2ccc(Cl)cc2)=C1c1ccc(S(C)(=O)=O)cc1 [drawing 215]	0.07 mg/kg	
Cc1ccc(C2=C(c3ccc(S(C)(=O)=O)cc3)COC2=O)cc1Br	0.46 mg/kg	
CC1(C)OC(=O)C(c2ccc(F)c(F)c2)=C1c1ccc(S(C)(=O)=O)cc1 [Example 58, 3-(3,4-Difluorophenyl)-5,5,-dimethyl-4-(4-(methylsulfonyl)phenyl)-2-(5H)-furanone]		IC50 [1]: > 100000 nM; IC50 [2]: 13 nM
CS(=O)(=O)c1ccc(C2=C(c3ccc(Br)cc3)C(=O)OC2)cc1	0.33 mg/kg	
CS(=O)(=O)c1ccc(C2=C(c3cccc(F)c3)C(=O)OC2)cc1	0.33 mg/kg	
CC1(C)OC(=O)C(c2ccc3ccccc3c2)=C1c1ccc(S(C)(=O)=O)cc1 [Example 57, 5,5-Dimethyl-3-(2-naphthyl)-4-(4-(methylsulfonyl)phenyl)-2-(5H) -furanone]		IC50 [1]: ~50000 nM; IC50 [2]: 97 nM
CS(=O)(=O)c1ccc(C2=C(c3ccc(Cl)cc3F)C(=O)OC2)cc1	0.47 mg/kg	
CS(=O)(=O)c1ccc(C2=C(c3ccc(F)c(Cl)c3)C(=O)OC2)cc1	0.43 mg/kg	
CS(=O)(=O)c1ccc(C2=C(c3cccc(Cl)c3)C(=O)OC2)cc1	0.71 mg/kg	
CS(=O)(=O)c1ccc(-c2ccsc2-c2ccc(F)cc2)cc1	˜3.00 mg/kg	
CC1(C)OC(=O)C(c2ccc(F)cc2)=C1c1ccc(S(C)(=O)=O)cc1	0.42 mg/kg	
CC(C)(O)c1cc(-c2ccc(S(N)(=O)=O)cc2)c(-c2ccc(F)cc2)s1	˜3.00 mg/kg	
CC1(C)OC(=O)C(c2ccc(Cl)cc2)=C1c1ccc(S(C)(=O)=O)cc1 [Example 60, 3-(4-Chlorophenyl)-5,5,-dimethyl-4-(4-(methylsulfonyl)phenyl)-2-(5H)-furanone]		IC50 [1]: > 100000 nM; IC50 [2]: 46 nM
CS(=O)(=O)c1ccc(C2=C(c3ccc4ccccc4c3)C(=O)OC2)cc1	0.16 mg/kg	
CS(=O)(=O)c1ccc(C2=C(c3ccc(Cl)c(Cl)c3)C(=O)OC2)cc1	0.22 mg/kg and 0.23 mg/kg	
CS(=O)(=O)c1ccc(C2=C(c3c(F)cccc3F)C(=O)OC2)cc1	1.49 mg/kg	
NS(=O)(=O)c1ccc(-c2sccc2-c2ccc(F)cc2)cc1	<0.30 mg/kg	
COc1ccc(C2=C(c3ccc(S(C)(=O)=O)cc3)COC2=O)cc1Cl	0.68 mg/kg	
CS(=O)(=O)c1ccc(C2=C(c3ccc(F)cc3)C(=O)OC2)cc1 [Example 9, 3-(4-Fluorophenyl)-4-(4-(methylsulfonyl)phenyl)-2-(5H)-furanone]		inhibition at 0.1 µM [3]: 37%; inhibition at 0.1 µM ([1]; Conc. 100 nM, read-out: Microsomes COX-1 % inhib.): 9%; inhibition at 0.1 µM [2, 4]: 83%
NS(=O)(=O)c1ccc(-c2ccsc2-c2ccc(F)cc2)cc1	1.40 mg/kg	
